Test results: US9359308B2, “Pyrazine kinase inhibitors” (Portola Pharmaceuticals, Inc., priority 2011, dated 2016)

These compounds were tested against T1, full length active recombinant SYK enzyme (Homo sapiens, UniProt P43405) (assay: Inhibition of Syk tyrosine phosphorylation activity (LANCE TR-FRET kinase assay)). Conditions: activity in the Syk assays, class symbols.
T1 construct: full length active recombinant SYK enzyme (Millipore, Calif.); purchased Millipore
Assay type: biochemical
How it was run: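 1 nM full-length active recombinant SYK phosphorylated 550 nM biotin-DEEDYESP-OH with 100 μM ATP in 50 mM Tris pH 7.5, 5 mM MgCl2, 1 mM DTT and 3% DMSO for 1 h at room temperature. After EDTA quench, Eu-anti-phosphotyrosine/SA-APC TR-FRET was read after 1 h. IC50s came from non-linear regression.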

Row | Structure (SMILES) | IC50 [nM]
1 | CC[C@@H](Nc1nc(Nc2snc(C)c2I)c(C(N)=O)nc1I)C(N)=O [Example 134, (R)-5-((1-amino-1-oxobutan-2-yl)amino)-6-iodo-3-((4-iodo-3-methylisothiazol-5-yl)amino)pyrazine-2-carboxamide] | 100 to 1000
2 | COc1ccc(Nc2nc(N[C@@H](C(N)=O)C(C)C)cnc2C(N)=O)cc1OC [Example 141, (R)-5-(1-amino-3-methyl-1-oxobutan-2-ylamino)-3-(3,4-dimethoxyphenylamino)pyrazine-2-carboxamide] | 10 to 100
3 | CC(C)[C@@H](Nc1cnc(C(N)=O)c(Nc2cccc(CN3CCOCC3)c2)n1)C(N)=O [Example 144, (R)-5-(1-amino-3-methyl-1-oxobutan-2-ylamino)-3-(3-(morpholinomethyl)phenylamino)pyrazine-2-carboxamide] | 100 to 1000
4 | CS(=O)(=O)Cc1ccc(Nc2nc(N[C@@H]3CCCC[C@@H]3N)cnc2C(N)=O)cc1 [Example 145, 5-((1R,2S)-2-aminocyclohexylamino)-3-(4-(methylsulfonylmethyl)phenylamino)pyrazine-2-carboxamide] | 10 to 100
5 | CC(C)[C@@H](Nc1cnc(C(N)=O)c(Nc2ccc3c(c2)OCO3)n1)C(N)=O [Example 146, (R)-5-(1-amino-3-methyl-1-oxobutan-2-ylamino)-3-(benzo[d][1,3]dioxol-5-ylamino)pyrazine-2-carboxamide] | 100 to 1000
6 | CC(C)[C@@H](Nc1cnc(C(N)=O)c(Nc2cccc(OC(F)(F)F)c2)n1)C(N)=O [Example 147, (R)-5-(1-amino-3-methyl-1-oxobutan-2-ylamino)-3-(3-(trifluoromethoxy)phenylamino)pyrazine-2-carboxamide] | 100 to 1000
7 | CC(C)[C@@H](Nc1cnc(C(N)=O)c(Nc2ccc(CN3CCOCC3)cc2)n1)C(N)=O [Example 148, (R)-5-(1-amino-3-methyl-1-oxobutan-2-ylamino)-3-(4-(morpholinomethyl)phenylamino)pyrazine-2-carboxamide] | 100 to 1000
8 | CC(C)[C@@H](Nc1cnc(C(N)=O)c(Nc2ccc(-n3ccnc3)cc2)n1)C(N)=O [Example 149, (R)-3-(4-(1H-imidazol-1-yl)phenylamino)-5-(1-amino-3-methyl-1-oxobutan-2-ylamino)pyrazine-2-carboxamide] | 10 to 100
9 | CC(C)[C@@H](Nc1cnc(C(N)=O)c(Nc2ccc(CS(C)(=O)=O)cc2)n1)C(N)=O [Example 150, (R)-5-(1-amino-3-methyl-1-oxobutan-2-ylamino)-3-(4-(methylsulfonylmethyl)phenylamino)pyrazine-2-carboxamide] | 100 to 1000
10 | CC[C@@H](Nc1cnc(C(N)=O)c(Nc2ccc(OC)c(OC)c2)n1)C(N)=O [Example 151, (R)-5-(1-amino-1-oxobutan-2-ylamino)-3-(3,4-dimethoxyphenylamino)pyrazine-2-carboxamide] | 10 to 100
11 | CC[C@@H](Nc1cnc(C(N)=O)c(Nc2ccc(C)cc2)n1)C(N)=O [Example 152, (R)-5-(1-amino-1-oxobutan-2-ylamino)-3-(p-tolylamino)pyrazine-2-carboxamide] | 10 to 100
12 | CS(=O)(=O)c1cccc(Nc2nc(N[C@@H]3CCCC[C@@H]3N)cnc2C(N)=O)c1 [Example 154, 5-((1R,2S)-2-aminocyclohexylamino)-3-(3-(methylsulfonyl)phenylamino)pyrazine-2-carboxamide] | 10 to 100
13 | Cc1ccc(Nc2nc(N[C@@H](C(N)=O)C(C)C)cnc2C(N)=O)cc1 [Example 155, (R)-5-(1-amino-3-methyl-1-oxobutan-2-ylamino)-3-(p-tolylamino)pyrazine-2-carboxamide] | 10 to 100
14 | CC(C)[C@@H](Nc1cnc(C(N)=O)c(Nc2ccc(S(=O)(=O)N(C)C)cc2)n1)C(N)=O [Example 156, (R)-5-(1-amino-3-methyl-1-oxobutan-2-ylamino)-3-(4-(N,N-dimethylsulfamoyl)phenylamino)pyrazine-2-carboxamide] | 10 to 100
15 | CC(=O)N(C)c1ccc(Nc2nc(N[C@@H](C(N)=O)C(C)C)cnc2C(N)=O)cc1 [Example 157, (R)-5-(1-amino-3-methyl-1-oxobutan-2-ylamino)-3-(4-(N-methylacetamido)phenylamino)pyrazine-2-carboxamide] | 100 to 1000
16 | CC[C@@H](Nc1cnc(C(N)=O)c(Nc2cc(OC)cc(OC)c2)n1)C(N)=O [Example 158, (R)-5-(1-amino-1-oxobutan-2-ylamino)-3-(3,5-dimethoxyphenylamino)pyrazine-2-carboxamide] | 10 to 100
17 | CC[C@@H](Nc1cnc(C(N)=O)c(Nc2ccc(S(C)(=O)=O)cc2)n1)C(N)=O [Example 159, (R)-5-(1-amino-1-oxobutan-2-ylamino)-3-(4-(methylsulfonyl)phenylamino)pyrazine-2-carboxamide] | 10 to 100
18 | CC(C)[C@@H](Nc1cnc(C(N)=O)c(Nc2ccc(S(C)(=O)=O)cc2)n1)C(N)=O [Example 160, (R)-5-(1-amino-3-methyl-1-oxobutan-2-ylamino)-3-(4-(methylsulfonyl)phenylamino)pyrazine-2-carboxamide] | 10 to 100
19 | CC[C@@H](Nc1cnc(C(N)=O)c(Nc2ccc(N(C)C(C)=O)cc2)n1)C(N)=O [Example 161, (R)-5-(1-amino-1-oxobutan-2-ylamino)-3-(4-(N-methylacetamido)phenylamino)pyrazine-2-carboxamide] | 100 to 1000
20 | Cc1ccc(Nc2nc(N[C@@H](C(N)=O)C(C)C)cnc2C(N)=O)cc1C [Example 162, (R)-5-(1-amino-3-methyl-1-oxobutan-2-ylamino)-3-(3,4-dimethylphenylamino)pyrazine-2-carboxamide] | 10 to 100
21 | Cc1cc(C)cc(Nc2nc(N[C@@H](C(N)=O)C(C)C)cnc2C(N)=O)c1 [Example 163, (R)-5-(1-amino-3-methyl-1-oxobutan-2-ylamino)-3-(3,5-dimethylphenylamino)pyrazine-2-carboxamide] | 10 to 100

Results, then the compound that gave them:

Row | IC50 [nM] | Structure (SMILES)
22 | 1 to 10 | CNC1(CNc2cnc(C(N)=O)c(Nc3ccc4ncccc4c3)n2)CC1 [Example 129, 5-(((1-(methylamino)cyclopropyl)methyl)amino)-3-(quinolin-6-ylamino)pyrazine-2-carboxamide]
23 | 1 to 10 | CCc1c(C)nsc1Nc1nc(N[C@@H]2CCCC[C@@H]2N)cnc1C(N)=O [Example 130, 5-(((1R,2S)-2-aminocyclohexyl)amino)-3-((4-ethyl-3-methylisothiazol-5-yl)amino)pyrazine-2-carboxamide]
24 | < 1 | Cc1nsc(Nc2nc(N[C@@H]3CCCC[C@@H]3N)cnc2C(N)=O)c1C [Example 131, 5-(((1R,2S)-2-aminocyclohexyl)amino)-3-((3,4-dimethylisothiazol-5-yl)amino)pyrazine-2-carboxamide]
25 | 10 to 100 | CC[C@@H](Nc1cnc(C(N)=O)c(Nc2snc(C)c2Br)n1)C(N)=O [Example 132, (R)-5-((1-amino-1-oxobutan-2-yl)amino)-3-((4-bromo-3-methylisothiazol-5-yl)amino)pyrazine-2-carboxamide]
26 | 10 to 100 | CC[C@@H](Nc1cnc(C(N)=O)c(Nc2snc(C)c2I)n1)C(N)=O [Example 133, (R)-5-((1-amino-1-oxobutan-2-yl)amino)-3-((4-iodo-3-methylisothiazol-5-yl)amino)pyrazine-2-carboxamide]
27 | 10 to 100 | CC[C@@H](Nc1cnc(C(N)=O)c(Nc2snc(C)c2Cl)n1)C(N)=O [Example 135, (R)-5-((1-amino-1-oxobutan-2-yl)amino)-3-((4-chloro-3-methylisothiazol-5-yl)amino)pyrazine-2-carboxamide]
28 | 10 to 100 | Cc1cc(Nc2nc(N[C@H](CC3CC3)C(N)=O)c(Cl)nc2C(N)=O)sn1 [Example 136, (R)-5-((1-amino-3-cyclopropyl-1-oxopropan-2-yl)amino)-6-chloro-3-((3-methylisothiazol-5-yl)amino)pyrazine-2-carboxamide]
29 | 10 to 100 | CC[C@@H](Nc1nc(Nc2cc(C)ns2)c(C(N)=O)nc1Cl)C(N)=O [Example 137, (R)-5-((1-amino-1-oxobutan-2-yl)amino)-6-chloro-3-((3-methylisothiazol-5-yl)amino)pyrazine-2-carboxamide]
30 | 1 to 10 | Cc1nsc(Nc2nc(N[C@@H]3CCCC[C@@H]3N)cnc2C(N)=O)c1F [Example 138]
31 | 10 to 100 | Cc1cc(Nc2nc(N[C@H]3CN[C@@H](CO)C3)cnc2C(N)=O)sn1 [Example 139, 5-(((3R,5R)-5-(hydroxymethyl)pyrrolidin-3-yl)amino)-3-((3-methylisothiazol-5-yl)amino)pyrazine-2-carboxamide]
32 | 1 to 10 | NC(=O)c1ncc(N[C@H]2CN[C@@H](CO)C2)nc1Nc1cnc2ccc(F)cc2c1 [Example 140, 3-((6-fluoroquinolin-3-yl)amino)-5-(((3R,5R)-5-(hydroxymethyl)pyrrolidin-3-yl)amino)pyrazine-2-carboxamide]
33 | 1 to 10 | COc1ccc(Nc2nc(N[C@@H]3CCCC[C@@H]3N)cnc2C(N)=O)cc1OC [Example 142, 5-((1R,2S)-2-aminocyclohexylamino)-3-(3,4-dimethoxyphenylamino)pyrazine-2-carboxamide]
34 | 1 to 10 | Cc1cc(Nc2nc(N[C@@H]3CCCC[C@@H]3N)cnc2C(N)=O)ccc1N1CCOCC1 [Example 143, 5-((1R,2S)-2-aminocyclohexylamino)-3-(3-methyl-4-morpholinophenylamino)pyrazine-2-carboxamide]
35 | 1 to 10 | CS(=O)(=O)c1ccc(Nc2nc(N[C@@H]3CCCC[C@@H]3N)cnc2C(N)=O)cc1 [Example 153, 5-((1R,2S)-2-aminocyclohexylamino)-3-(4-(methylsulfonyl)phenylamino)pyrazine-2-carboxamide]
36 | 1 to 10 | COc1cc(Nc2nc(N[C@H](CC3CC3)C(N)=O)cnc2C(N)=O)cc(OC)c1 [Example 164, (R)-5-(1-amino-3-cyclopropyl-1-oxopropan-2-ylamino)-3-(3,5-dimethoxyphenylamino)pyrazine-2-carboxamide]
